Laboratory results taken from patent US11717554B2, “Method for preventing or treating hangover symptom(s) associated with consumption of alcoholic beverage(s)” (MAX R&D LLC, priority 2019, dated 2023).
Like-named read-outs stand apart in the source and are kept apart here. Each block holds one compound with its values, some of them ahead of it.

Key:
acetaldehyde = assay: MTCG in urine of rats treated with ethanol, disulfiram and CG or CbG; details: for oral bioavailability (in words): inferred from urinary MTCG excretion
Experimental: In the first study, rats were administered disulfiram, an ALDH inhibitor and alcohol deterrent drug used to inhibit the metabolism of ethanol at the acetaldehyde stage, thus producing an adverse reaction that discourages further alcohol drinking (reviewed in Wikipedia, 2017). Treatment of rats with disulfiram causes a buildup of acetaldehyde in blood (Nagasawa et al, 1978). The rats were then administered CbG, orally, to determine whether CbG, following its in vivo conversion to CG, can sequester the acetaldehyde produced in the disulfiram-treated rats to a product that is excreted into the urine. Note that CbG in vivo may be reduced 2 CG. The product expected from this sequestration reaction is MTCG (vide supra). The MTCG in rat urine, collected over 24 hours following the ethanol dose, was quantitatively analyzed by LC/MS.

isoamyl aldehyde = details: for BTCG excreted in urine: LC/MS
Description: In the second study, isoamyl alcohol replaced ethanol, and cyanamide, another clinically-used ALDH inhibitor (Tottmar et al., 1977), replaced disulfiram to block the further metabolism of isoamyl aldehyde derived from isoamyl alcohol (FIG. 3). Isoamyl alcohol is the most abundant small, branched-chain alcohol congener present in bourbon (Damrau and Liddy, 1960). […] The excreted product in urine here would be 2-isoobutylthiazolidine-4-carbonylglycine, viz., BTCG (FIG. 1). The urines were analyzed for BTCG by LC/MS as above.

[1] = Urinary excretion and metabolic fate of MTCA in rats; type: in vivo
Description: We examined cysteine (the natural “L’ form), a semi-essential sulfhydryl amino acid, as a sequestering agent for acetaldehyde (Nagasawa et al., 1975). Indeed, cysteine readily condensed with acetaldehyde in aqueous solution to form a cyclic product, 2-methylthiazolidine-4 carboxylic acid (MTCA). […] We, therefore, prepared and administered radio-labeled MTCA (^14C at the 2-position) to a rat to follow its metabolic course (Nagasawa et al., 1984).

[2] = Stability of MTCG in 0.1 N HCl; type: physicochemical
Description: Although identified in urine, the long-term stability of MTCG in urine is still a question. MTCG is found to be stable in 0.1 N HCl, so we plan to collect the rat urine in acidified containers on ice. Presence of MTCG will be determined using a HPLC/MS method to obtain quantitative data of MTCG in rat urine.

[3] = rat biological fluids; cited from earlier work

SMILES: N[C@@H](CS)C(=O)NCC(=O)O [CG, cysteinylglycine]
urinary MTCG excretion, CG group (Group A) compared with disulfiram and ethanol only (Group C) (acetaldehyde; rats, disulfiram and ethanol, 24 hour urine): not statistically significant
oral bioavailability (in words) (acetaldehyde; rats): poor oral bioavailability

SMILES: NC(CSSCC(N)C(=O)NCC(=O)O)C(=O)NCC(=O)O (centres unmarked) [CbG, cystinyl-bis-glycine]
urinary excretion of MTCG relative to CG administration (acetaldehyde; rats given disulfiram and ethanol, oral CbG (Group B) vs CG (Group A), urine collected over 24 hours, LC/MS): 4.25 times greater
oral bioavailability (in words) (acetaldehyde; rats): more orally bioavailable than CG
BTCG excreted in urine (isoamyl aldehyde; Group A: cyanamide, isoamyl alcohol and CbG): excreted BTCG in the urine, albeit minimally
condition of animals (isoamyl aldehyde; Group A: rats receiving cyanamide, isoamyl alcohol and CbG, group without CbG was comatose (3 of 7) with one death): normal although hypoactive
BTCG excreted in urine (isoamyl aldehyde; Group C: isoamyl alcohol and CbG, no cyanamide): no BTCG could be detected in urine
condition of animals (isoamyl aldehyde; Group C: rats receiving isoamyl alcohol and CbG, no cyanamide): normal but more active
urinary excretion of BTCG compared to MTCG of the first study (isoamyl aldehyde; cyanamide, CbG, isoamyl alcohol vs disulfiram, CbG, ethanol (nanograms of BTCG vs. micrograms of MTCG)): more than 3 orders of magnitude lower

SMILES: N[C@@H](CS)C(=O)O [L-cysteine]
MTCA in urine after ethanol and L-cysteine ([1]; rats administered ethanol and L-cysteine): could not find MTCA in the urine

SMILES: CC1NC(C(=O)O)CS1 (centres unmarked) [MTCA, 2-methylthiazolidine-4 carboxylic acid]
metabolic fate of radiolabel ([1]; rat, in vivo): most of the radiolabel appeared as expired ^14CO2
MTCA in urine after administration of MTCA ([1]; rats, MTCA 400 mg/kg): no MTCA in the urine

stability in 0.1 N HCl [2]: stable
SMILES: CC1NC(C(=O)NCC(=O)O)CS1 (centres unmarked) [MTCG, 2-methylthiazolidine-4-carbonylglycine]
stability in biological fluids of rats, including urine [3]: stable
